Test system in one series: not listed separately
Nature of the series: Measurement of LogP values by HPLC on reversed phase columns (EEC directive 79/831 Annex V.A8). Type of series: physicochemical. The note with it: method [a]: LC-UV, acidic range, 0.1% formic acid in water and acetonitrile as eluent; Table 1. As to the method:
Measurement of Log P values was performed as outlined above.
As a reminder, the chromatographic logP is lipophilicity estimated from chromatographic retention. High values mean a more lipophilic compound, low ones a more hydrophilic compound. Consider `NC(=O)c1cncn1CC(O)(Cc1ccc(Cl)cc1F)C1CC1` (stereo not shown) [Example I-116], for which the chromatographic logP was found to be 1.49.
On the same count and under the same terms, under `CC(C)C(O)(Cc1ccc(F)c(F)c1F)Cn1cncc1C#N` (stereo not shown) [Example I-105] stands 2.78; under `N#Cc1cncn1CC(O)(Cc1ccc(F)cc1)C1CCCC1` (stereo not shown) [Example I-161], 2.82.
Compound `N#Cc1cncn1CC(O)(Cc1cccc(Cl)c1F)C1(Cl)CC1` (stereo not shown) [Example I-145] had a chromatographic logP of 3.02.
Still for that read-out and setting: under `N#Cc1cncn1CC(O)(Cc1ccc(F)c(F)c1F)C1CCC1` (stereo not shown) [Example I-104] stands 2.78; under `N#Cc1cncn1CC(O)(Cc1cc(Cl)cc(Cl)c1)C1(Cl)CC1` (stereo not shown) [Example I-58], 3.55.
Same read-out and setting: under `OC(Cc1ccccc1F)(Cn1cncc1C1CC1)C1(Cl)CC1` (stereo not shown) [Example I-37] stands 1.86; under `O=C(Cc1ccccc1)c1cncn1CC(O)(Cc1ccccc1)C1(Cl)CC1` (stereo not shown) [Example I-169], 3.56; under `N#Cc1cncn1CC(O)(Cc1ccc(Cl)cc1F)C1CCC1` (stereo not shown) [Example I-117], 3.31.
Regarding `CC(C)C(O)(Cc1ccc(F)cc1)Cn1cncc1C#N` (stereo not shown) [Example I-162], the chromatographic logP came to 2.44.
Same read-out and setting: under `N#Cc1cncn1CC(O)(Cc1ccnnc1Cl)C1(Cl)CC1` (stereo not shown) [Example I-168] stands 1.59; under `N#Cc1cncn1CC(O)(Cc1ccc(F)cc1)C1(Cl)CCC1` (stereo not shown) [Example I-159], 2.98.

The same series, now with this note: method [a]: LC-UV, acidic range, 0.1% formic acid in water and acetonitrile as eluent; Table 2, compounds of formula (XVII).
With `N#Cc1cncn1CC(=O)C1(Cl)CCC1` [XVII-18], the chromatographic logP was determined as 1.86.
On to `O=C(Cn1cncc1I)C1(Cl)CC1` [XVII-10], for which the chromatographic logP amounted to 0.7.
Consider `N#Cc1cncn1CC(=O)CC1CC1` [XVII-12], for which the chromatographic logP was determined as 1.27.
Same read-out and setting: under `CC(C)C(=O)Cn1cncc1C#N` [XVII-14] stands 1.14; under `CCCCC(=O)Cn1cncc1C#N` [XVII-19], 1.6; under `N#Cc1cncn1CC(=O)C1CCC1` [XVII-17], 1.26.
Compound `CC(C)(F)C(=O)Cn1cncc1C#N` [XVII-11] showed a chromatographic logP of 1.31.
The same measure, in the same setting: then `N#Cc1cncn1CC(=O)C1(Cl)CC1` [XVII-2, 1-[2-(1-chlorocyclopropyl)-2-oxoethyl]-1H-imidazole-5-carbonitrile], with 1.35; and `N#Cc1cncn1CC(=O)C1(C#N)CC1` [XVII-9], with 0.9; and `O=C(Cn1cncc1F)C1(Cl)CC1` [XVII-5], with 0.32.
`N#Cc1cncn1CC(=O)C1(F)CC1` [XVII-4] registered a chromatographic logP of 1.05.
On the same count and under the same terms, under `N#Cc1cncn1CC(=O)C1CC1` [XVII-3] stands 0.74.

Another series relates to Septoria tritici. The series can be described thus: In vivo preventive test on Septoria tritici (leaf spot on wheat), Examples E, Q3 and R5. The note with it: Zymoseptoria tritici, 576 h, 500 ppm of active ingredient; wheat, preventive spray, evaluated 24 days after inoculation; read-out: efficacy.
Consider `NC(=O)c1cncn1CC(O)(Cc1ccc(Cl)cc1F)C1CC1` (stereo not shown) [Example I-116], for which the pest or weed control at 500 ppm lay in the range of 90 to 100%.
Still for that read-out and setting: under `CC(C)C(O)(Cc1ccc(F)c(F)c1F)Cn1cncc1C#N` (stereo not shown) [Example I-105] stands 70 to 79%.
Still for that read-out and setting: under `N#Cc1cncn1CC(O)(Cc1ccc(F)c(F)c1F)C1CCC1` (stereo not shown) [Example I-104] stands 90 to 100%.
As to `N#Cc1cncn1CC(O)(Cc1cc(Cl)cc(Cl)c1)C1(Cl)CC1` (stereo not shown) [Example I-58], the pest or weed control at 500 ppm lay within 80 to 89%.
Same read-out and setting: then `OC(Cc1ccccc1F)(Cn1cncc1C1CC1)C1(Cl)CC1` (stereo not shown) [Example I-37], with 90 to 100%.
As to `O=C(Cc1ccccc1)c1cncn1CC(O)(Cc1ccccc1)C1(Cl)CC1` (stereo not shown) [Example I-169], the pest or weed control at 500 ppm is 70 to 79%.
Consider `N#Cc1cncn1CC(O)(Cc1ccc(Cl)cc1F)C1CCC1` (stereo not shown) [Example I-117], for which the pest or weed control at 500 ppm was 90 to 100%.

The test system of a further series is Puccinia recondita. The series can be described thus: In vivo preventive test on Puccinia recondita (brown rust on wheat), Examples C and R3. The note with it: Puccinia recondita, 264 h; 500 ppm of active ingredient; wheat, preventive spray, evaluated 11 days after inoculation; read-out: efficacy.
In the case of `CC(C)C(O)(Cc1ccc(F)c(F)c1F)Cn1cncc1C#N` (stereo not shown) [Example I-105], the pest or weed control at 500 ppm is 70 to 79%.
In the case of `N#Cc1cncn1CC(O)(Cc1ccc(F)c(F)c1F)C1CCC1` (stereo not shown) [Example I-104], the pest or weed control at 500 ppm lay in the range of 90 to 100%.
The same measure, in the same setting: then `N#Cc1cncn1CC(O)(Cc1cc(Cl)cc(Cl)c1)C1(Cl)CC1` (stereo not shown) [Example I-58], with 80 to 89%; and `OC(Cc1ccccc1F)(Cn1cncc1C1CC1)C1(Cl)CC1` (stereo not shown) [Example I-37], with 80 to 89%.
`O=C(Cc1ccccc1)c1cncn1CC(O)(Cc1ccccc1)C1(Cl)CC1` (stereo not shown) [Example I-169]: the pest or weed control at 500 ppm lay in the range of 70 to 79%.
As for `N#Cc1cncn1CC(O)(Cc1ccc(Cl)cc1F)C1CCC1` (stereo not shown) [Example I-117], the pest or weed control at 500 ppm fell in the range of 90 to 100%.

The test system of the next series is Sphaerotheca fuliginea. The series can be described thus: In vivo preventive test on Sphaerotheca fuliginea (powdery mildew on cucurbits), Examples F and R6. Particulars: Podosphaera fuliginea, 360 h; 500 ppm of active ingredient; gherkin, preventive spray, evaluated 15 days after inoculation; read-out: efficacy.
For `NC(=O)c1cncn1CC(O)(Cc1ccc(Cl)cc1F)C1CC1` (stereo not shown) [Example I-116], the pest or weed control at 500 ppm lay within 90 to 100%.
Same read-out and setting: then `CC(C)C(O)(Cc1ccc(F)c(F)c1F)Cn1cncc1C#N` (stereo not shown) [Example I-105], with 90 to 100%; and `N#Cc1cncn1CC(O)(Cc1ccc(F)c(F)c1F)C1CCC1` (stereo not shown) [Example I-104], with 90 to 100%.
Still for that read-out and setting: under `N#Cc1cncn1CC(O)(Cc1cc(Cl)cc(Cl)c1)C1(Cl)CC1` (stereo not shown) [Example I-58] stands 90 to 100%; under `O=C(Cc1ccccc1)c1cncn1CC(O)(Cc1ccccc1)C1(Cl)CC1` (stereo not shown) [Example I-169], 90 to 100%; under `N#Cc1cncn1CC(O)(Cc1ccc(Cl)cc1F)C1CCC1` (stereo not shown) [Example I-117], 90 to 100%.

Another series relates to Pyrenophora teres. The series can be described thus: In vivo preventive test on Pyrenophora teres (net blotch on barley), Examples D, Q2 and R4. The note with it: Pyrenophora teres, 336 h, Example R4, rate of application 100 ppm, read-out: Efficacy in %.
Turning to `OC(Cc1ccccc1Cl)(Cn1cnc(Br)c1)C1(Cl)CC1` (stereo not shown) [drawing 106, reference compound], the pest or weed control at 100 ppm was found to be 0%.

The same series, now with this note: Pyrenophora teres, 336 h, Example R4, rate of application 500 ppm, read-out: Efficacy in %.
Turning to `OC(Cc1ccccc1Cl)(Cn1cnc(Br)c1)C1(Cl)CC1` (stereo not shown) [drawing 106, reference compound], the pest or weed control at 500 ppm stood at 0%.

For another series, the system named is Uromyces appendiculatus. Nature of the series: In vivo preventive test on Uromyces appendiculatus (bean rust), Examples G and R7. The note with it: 264 h, 500 ppm of active ingredient, bean, preventive spray, evaluated 11 days after inoculation, read-out: efficacy.
Turning to `N#Cc1cncn1CC(O)(Cc1ccc(F)c(F)c1F)C1CCC1` (stereo not shown) [Example I-104], the pest or weed control at 500 ppm was in the range of 90 to 100%.
In the case of `N#Cc1cncn1CC(O)(Cc1cc(Cl)cc(Cl)c1)C1(Cl)CC1` (stereo not shown) [Example I-58], the pest or weed control at 500 ppm fell in the range of 90 to 100%.
Same read-out and setting: then `O=C(Cc1ccccc1)c1cncn1CC(O)(Cc1ccccc1)C1(Cl)CC1` (stereo not shown) [Example I-169], with 70 to 79%; and `N#Cc1cncn1CC(O)(Cc1ccc(Cl)cc1F)C1CCC1` (stereo not shown) [Example I-117], with 90 to 100%.

For the origin of these results see US10231453B2, “5-substituted imidazole derivatives” (BAYER CROPSCIENCE AKTIENGESELLSCHAFT, priority 2015, dated 2019).
